# Target: XIAP BIR3 (N-His-Tb-BIR3(241-356, XIAP)) (Homo sapiens (Human), UniProt P98170)
# Format: binding
# Conditions: 130 nM N-His-Tb-BIR3(241-356, XIAP), 1.4 nM fluoresceinated modified SMAC peptide, 60 minutes room temperature; read-out: XIAP BIR3 FPA IC50
# XIAP BIR3 (N-His-Tb-BIR3(241-356, XIAP)), sequence (P98170 241-356): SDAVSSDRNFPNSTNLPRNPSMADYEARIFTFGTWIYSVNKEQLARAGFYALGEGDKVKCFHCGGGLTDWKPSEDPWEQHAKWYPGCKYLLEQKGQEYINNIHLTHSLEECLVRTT
row,SMILES,IC50
1,"CN[C@@H](C)C(=O)N[C@H](C(=O)N1C[C@@H](NC(=O)c2ccc(CN(C(=O)[C@@H]3Cc4ccccc4CN3C(=O)[C@@H](NC(=O)[C@H](C)NC)C(C)(C)C)[C@H](C)c3cccc(OC)c3)cc2)C[C@H]1C(=O)N[C@@H]1CCCc2ccccc21)C(C)(C)C [Example 3, (S)-2-((S)-3,3-Dimethyl-2-((S)-2-(methylamino)propanamido)butanoyl)-N-(4-(((3S,5S)-1-((S)-3,3-dimethyl-2-((S)-2-(methylamino)propanamido)butanoyl)-5-(((R)-1,2,3,4-tetrahydronaphthalen-1-yl)carbamoyl)pyrrolidin-3-yl)carbamoyl)benzyl)-N-((R)-1-(3-methoxyphenyl)ethyl)-1,2,3,4-tetrahydroisoquinoline-3-carboxamide]",60 nM
2,"CN[C@@H](C)C(=O)N[C@H](C(=O)N1CC(NC(=O)C2CC2CN(C(=O)[C@@H]2Cc3ccccc3CN2C(=O)[C@@H](NC(=O)[C@H](C)NC)C(C)(C)C)[C@H](C)c2ccccc2F)C[C@H]1C(=O)NC1CCCc2ccccc21)C(C)(C)C (stereo partly drawn) [Example 42, (3S)-2-((S)-3,3-Dimethyl-2-((S)-2-(methylamino)propanamido)butanoyl)-N-((2-(((3S,5S)-1-((S)-3,3-dimethyl-2-((S)-2-(methylamino)propanamido)butanoyl)-5-(((R)-1,2,3,4-tetrahydronaphthalen-1-yl)carbamoyl)pyrrolidin-3-yl)carbamoyl)cyclopropyl)methyl)-N-((R)-1-(2-fluorophenyl)ethyl)-1,2,3,4-tetrahydroisoquinoline-3-carboxamide]",70 nM
3,CN[C@@H](C)C(=O)N[C@H](C(=O)N1CCc2ccccc2[C@H]1C(=O)N(CCc1ccccc1)Cc1ccc(C(=O)NC2C[C@@H](C(=O)NC3CCCc4ccccc43)N(C(=O)[C@@H](NC(=O)[C@H](C)NC)C(C)(C)C)C2)cc1)C(C)(C)C (stereo partly shown) [Example 16],70 nM
4,"CNC(C)C(=O)N[C@H](C(=O)N1C[C@@H](NC(=O)c2ccc(C(=O)N(C[C@@H]3Cc4ccccc4CN3C(=O)[C@@H](NC(=O)[C@H](C)NC)C(C)(C)C)[C@H](C)Cc3ccccc3F)cc2)C[C@H]1C(=O)N[C@@H]1CCCc2ccccc21)C(C)(C)C (stereo in doubt) [Example 17, N^1-(((S)-2-((S)-3,3-dimethyl-2-((S)-2-(methylamino)propanamido)butanoyl)-1,2,3,4-tetra-hydroisoquinolin-3-yl)methyl)-N^4-((3S,5S)-1-((S)-3,3-dimethyl-2-((S)-2-(methyl-amino)propanamido)butanoyl)-5-(((R)-1,2,3,4-tetrahydro-naphthalen-1-yl)carbamoyl)pyrrolidin-3-yl)-N^1-((R)-1-(2-fluorophenyl)propan-2-yl) terephthalamide]",100 nM
5,"CN[C@@H](C)C(=O)N[C@H](C(=O)N1CCc2ccccc2[C@H]1C(=O)N(Cc1ccc(C(=O)N[C@H]2C[C@@H](C(=O)N[C@@H]3CCCc4ccccc43)N(C(=O)[C@@H](NC(=O)[C@H](C)NC)C(C)(C)C)C2)cc1)[C@H](C)c1ccccc1F)C(C)(C)C [Example 19, (S)-2-((S)-3,3-Dimethyl-2-((S)-2-(methylamino)propanamido)butanoyl)-N-(4-(((3S,5S)-1-((S)-3,3-dimethyl-2-((S)-2-(methylamino)propanamido)butanoyl)-5-(((R)-1,2,3,4-tetra-hydronaphthalen-1-yl)carbamoyl)pyrrolidin-3-yl)carbamoyl)benzyl)-N-((R)-1-(2-fluorophenyl)ethyl)-1,2,3,4-tetrahydro-isoquinoline-1-carboxamide]",290 nM
6,"CN[C@@H](C)C(=O)N[C@H](C(=O)N1C[C@@H](NC(=O)c2ccc(CN(C(=O)[C@@H]3Cc4ccccc4CN3C(=O)[C@@H](NC(=O)[C@H](C)NC)C(C)(C)C)[C@H](C)c3ccccc3C)cc2)C[C@H]1C(=O)N[C@@H]1CCCc2ccccc21)C(C)(C)C [Example 28, (S)-2-((S)-3,3-Dimethyl-2-((S)-2-(methylamino)propanamido)butanoyl)-N-(4-(((3S,5S)-1-((S)-3,3-dimethyl-2-((S)-2-(methylamino)propanamido)butanoyl)-5-(((R)-1,2,3,4-tetra-hydronaphthalen-1-yl)carbamoyl)pyrrolidin-3-yl)carbamoyl)benzyl)-N-((R)-1-(o-tolyl)ethyl)-1,2,3,4-tetrahydro-isoquinoline-3-carboxamide]",160 nM
7,"CN[C@@H](C)C(=O)N[C@H](C(=O)N1Cc2ccccc2C[C@H]1CN(C(=O)c1ccc(C(=O)N[C@H]2C[C@@H](C(=O)N[C@@H]3CCCc4ccccc43)N(C(=O)[C@@H](NC(=O)[C@H](C)NC)C(C)(C)C)C2)cc1)[C@H](C)c1ccccc1F)C(C)(C)C [Example 37, N^1-(((S)-2-((S)-3,3-Dimethyl-2-((S)-2-(methylamino)propanamido)butanoyl)-1,2,3,4-tetrahydro-isoquinolin-3-yl)methyl)-N^4-((3S,5S)-1-((S)-3,3-dimethyl-2-((S)-2-(methylamino)propanamido)butanoyl)-5-(((R)-1,2,3,4-tetrahydro-naphthalen-1-yl)carbamoyl)pyrrolidin-3-yl)-N^1-((R)-1-(2-fluorophenyl)ethyl) terephthalamide]",230 nM
8,"CN[C@@H](C)C(=O)N[C@H](C(=O)N1Cc2ccccc2C[C@H]1CN(Cc1cccc2ccccc12)C(=O)c1ccc(C(=O)N[C@H]2C[C@@H](C(=O)N[C@@H]3CCCc4ccccc43)N(C(=O)[C@@H](NC(=O)[C@H](C)NC)C(C)(C)C)C2)cc1)C(C)(C)C [Example 34, N^1-(((S)-2-((S)-3,3-Dimethyl-2-((S)-2-(methylamino)propanamido)butanoyl)-1,2,3,4-tetrahydro-isoquinolin-3-yl)methyl)-N^4-((3S,5S)-1-((S)-3,3-dimethyl-2-((S)-2-(methylamino)propanamido)butanoyl)-5-(((R)-1,2,3,4-tetrahydro-naphthalen-1-yl)carbamoyl)pyrrolidin-3-yl)-N^1-(naphthalen-1-ylmethyl) terephthalamide]",160 nM
9,"CN[C@@H](C)C(=O)N[C@H](C(=O)N1C[C@@H](NC(=O)c2ccc(CN(C(=O)[C@@H]3Cc4ccccc4CN3C(=O)[C@@H](NC(=O)[C@H](C)NC)C(C)(C)C)[C@H](C)c3ccc4ccccc4c3)cc2)C[C@H]1C(=O)N[C@@H]1CCCc2ccccc21)C(C)(C)C [Example 15, (S)-2-((S)-3,3-Dimethyl-2-((S)-2-(methylamino)propanamido)butanoyl)-N-(4-(((3S,5S)-1-((S)-3,3-dimethyl-2-((S)-2-(methylamino)propanamido)butanoyl)-5-(((R)-1,2,3,4-tetra-hydronaphthalen-1-yl)carbamoyl)pyrrolidin-3-yl)carbamoyl)benzyl)-N-((R)-1-(naphthalen-2-yl)ethyl)-1,2,3,4-tetrahydro-isoquinoline-3-carboxamide]",90 nM
10,"CN[C@@H](C)C(=O)N[C@H](C(=O)N1C[C@@H](NC(=O)c2ccc(CN(CCc3ccc4ccccc4c3)C(=O)[C@@H]3Cc4ccccc4CN3C(=O)[C@@H](NC(=O)[C@H](C)NC)C(C)(C)C)cc2)C[C@H]1C(=O)N[C@@H]1CCCc2ccccc21)C(C)(C)C [Example 12, (S)-2-((S)-3,3-Dimethyl-2-((S)-2-(methylamino)propanamido)butanoyl)-N-(4-(((3S,5S)-1-((S)-3,3-dimethyl-2-((S)-2-(methyl-amino)propanamido)butanoyl)-5-(((R)-1,2,3,4-tetrahydro-naphthalen-1-yl)carbamoyl)pyrrolidin-3-yl)carbamoyl)benzyl)-N-(2-(naphthalen-2-yl)ethyl)-1,2,3,4-tetrahydro-isoquinoline-3-carboxamide]",90 nM
11,"CN[C@@H](C)C(=O)N[C@H](C(=O)N1Cc2ccccc2C[C@H]1CN(Cc1cccc(C)c1C)C(=O)c1ccc(C(=O)Nc2ccc3c(c2)CN(C(=O)[C@@H](NC(=O)[C@H](C)NC)C(C)(C)C)[C@H](C(=O)N[C@@H]2CCCc4ccccc42)C3)cc1)C(C)(C)C [Example 35, N^1-(((S)-2-((S)-3,3-Dimethyl-2-((S)-2-(methylamino)propanamido)butanoyl)-1,2,3,4-tetra-hydroisoquinolin-3-yl)methyl)-N^4-((S)-2-((S)-3,3-dimethyl-2-((S)-2-(methylamino)propanamido)butanoyl)-3-(((R)-1,2,3,4-tetrahydro-naphthalen-1-yl)carbamoyl)-1,2,3,4-tetra-hydroisoquinolin-7-yl)-N^1-(2,3-dimethylbenzyl) terephthalamide]",230 nM
12,"CN[C@@H](C)C(=O)N[C@H](C(=O)N1Cc2ccccc2C[C@H]1CN(C(=O)c1ccc(C(=O)N[C@H]2C[C@@H](C(=O)N[C@@H]3CCCc4ccccc43)N(C(=O)[C@@H](NC(=O)[C@H](C)NC)C(C)(C)C)C2)cc1)[C@H](C)Cc1ccc2ccccc2c1)C(C)(C)C [Example 30, N^1-(((S)-2-((S)-3,3-Dimethyl-2-((S)-2-(methylamino)propanamido)butanoyl)-1,2,3,4-tetrahydro-isoquinolin-3-yl)methyl)-N^4-((3S,5S)-1-((S)-3,3-dimethyl-2-((S)-2-(methylamino)propanamido)butanoyl)-5-(((R)-1,2,3,4-tetrahydro-naphthalen-1-yl)carbamoyl)pyrrolidin-3-yl)-N^1-((R)-1-(naphthalen-2-yl)propan-2-yl) terephthalamide]",270 nM
13,"CN[C@@H](C)C(=O)N[C@H](C(=O)N1C[C@@H](NC(=O)c2ccc(CN(Cc3ccc4ccccc4c3)C(=O)[C@@H]3Cc4ccccc4CN3C(=O)[C@@H](NC(=O)[C@H](C)NC)C(C)(C)C)cc2)C[C@H]1C(=O)N[C@@H]1CCCc2ccccc21)C(C)(C)C [Example 14, (S)-2-((S)-3,3-Dimethyl-2-((S)-2-(methyl-amino)propanamido)butanoyl)-N-(4-(((3S,5S)-1-((S)-3,3-dimethyl-2-((S)-2-(methylamino)propanamido)butanoyl)-5-(((R)-1,2,3,4-tetra-hydronaphthalen-1-yl)carbamoyl)pyrrolidin-3-yl)carbamoyl)benzyl)-N-(naphthalen-2-ylmethyl)-1,2,3,4-tetrahydro-isoquinoline-3-carboxamide]",40 nM

# Source: patent publication US9603889B2, “IAP antagonists” (BRISTOL-MYERS SQUIBB COMPANY, priority 2012, dated 2017)
